According to US20120046272A1, “Novel Therapeutic Compounds” (GRUNENTHAL GMBH, priority 2010, published 2012):

Test system: mice
Experiment: Hot plate model of acute thermal pain
Assay type: in vivo
Conditions: hot plate 46.0° C.±1.0° C, tested prior to and 30 min after drug administration, cut-off 120 s
Experimental: The device consisted of an electrically heated surface and an open plexiglass tube (34 cm high×44 cm diameter), as per the hot plate test adapted from Eddy and Leimbach (1953); The animals were confined to the heated surface. The temperature was kept at 46.0° C.±1.0° C. Mice were placed on the hot plate, and the time, recorded with a stopwatch, until either licking of the hind paw or jumping were initiated. Animals were tested prior to and 30 min after drug administration. The pre-drug latencies were between 17 and 45 s. The maximum possible effect (MPE) was defined as the lack of a nociceptive response during the exposure to the heat stimulus. The percentage of MPE was calculated according to the formula: [(T1−T0)/(T2−T0)]×100, where T0 and T1 were the latencies obtained before and after drug injection, and T2 was the cut-off time (120 s).
Data are expressed as mean (±SEM) % MPE. p<0.05 versus vehicle control.

Compound | antinociception in hot plate test (% MPE)
CCC(c1cccc(OC(=O)CC2(CN)CCCCC2)c1)C(C)CN(C)C (centres unmarked) [Compound of Formula 25] | induced dose-dependent antinociception and reached full efficacy
CN1CC[C@]23c4c5ccc(O)c4O[C@H]2[C@@H](O)C=C[C@H]3[C@H]1C5 [morphine] | induced dose-dependent antinociception and reached full efficacy
